“And” between values parts separate entries of the source, which are not always exact repeats. Equal entries are not always repeated. Inconclusive results and toxic doses are left out. How the source made its calls: active means survival T/C of 150% or more; inactive means T/C below 125% in these data.
Tested on: CD2F1 mice, L1210 leukemia ip, survival T/C
Experiment: NCI In Vivo Anticancer Drug Screen. Data for tumor model L1210 Leukemia (intraperitoneal) in CD2F1 (CDF1) mice
Conditions: higher = longer survival
Procedure, shortened: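 Mice carrying a transplanted tumor received test compound or vehicle alone. The value is the measurement in the treated group divided by that in the vehicle-treated control group.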

[1] = endpoint: mean survival time, dose: 100.0 mg/kg/injection, schedule: Q01DX009 (ip), vehicle: saline with Tween-80
[2] = endpoint: mean survival time, dose: 200.0 mg/kg/injection, schedule: Q01DX009 (ip), vehicle: saline with Tween-80
[3] = endpoint: mean survival time, dose: 400.0 mg/kg/injection, schedule: Q01DX009 (ip), vehicle: saline with Tween-80
[4] = endpoint: mean survival time, dose: 100.0 mg/kg/injection, schedule: Q04DX003 (ip), vehicle: saline with Tween-80
[5] = endpoint: mean survival time, dose: 200.0 mg/kg/injection, schedule: Q04DX003 (ip), vehicle: saline with Tween-80
[6] = endpoint: mean survival time, dose: 100.0 mg/kg/injection, schedule: Q01DX009 (ip), vehicle: saline
[7] = endpoint: mean survival time, dose: 100.0 mg/kg/injection, schedule: Q04DX003 (ip), vehicle: saline
[8] = endpoint: mean survival time, dose: 200.0 mg/kg/injection, schedule: Q01DX009 (ip), vehicle: saline
[9] = endpoint: mean survival time, dose: 200.0 mg/kg/injection, schedule: Q04DX003 (ip), vehicle: saline
[10] = endpoint: mean survival time, dose: 100.0 mg/kg/injection, schedule: Q01DX001 (ip), vehicle: saline
[11] = endpoint: mean survival time, dose: 200.0 mg/kg/injection, schedule: Q01DX001 (ip), vehicle: saline
[12] = endpoint: mean survival time, dose: 400.0 mg/kg/injection, schedule: Q04DX003 (ip), vehicle: saline with Tween-80
[13] = endpoint: mean survival time, dose: 50.0 mg/kg/injection, schedule: Q01DX009 (ip), vehicle: saline with Tween-80
[14] = endpoint: mean survival time, dose: 400.0 mg/kg/injection, schedule: Q01DX001 (ip), vehicle: saline

Measured: T/C

OC1C(COCc2ccccc2)OC(n2cccc2)C1O (stereo not drawn)
inactive: endpoint: median survival time, dose: 8.75 mg/kg/injection, schedule: Q01DX005 (ip), vehicle: distilled water + Tween-80 98 % of control | endpoint: median survival time, dose: 17.5 mg/kg/injection, schedule: Q01DX005 (ip), vehicle: distilled water + Tween-80 101 % of control | endpoint: median survival time, dose: 35.0 mg/kg/injection, schedule: Q01DX005 (ip), vehicle: distilled water + Tween-80 104 % of control | endpoint: median survival time, dose: 70.0 mg/kg/injection, schedule: Q01DX005 (ip), vehicle: distilled water + Tween-80 112 % of control | endpoint: median survival time, dose: 140.0 mg/kg/injection, schedule: Q01DX005 (ip), vehicle: distilled water + Tween-80 98 % of control

CC(C)C(Br)C(=O)NCC(=O)O (stereo not drawn)
inactive: [1] 103 % of control | [2] 97 % of control | [3] 98 % of control

C=CCOC(=O)CCCCCCCCC(=O)OCC=C
inactive: [1] 97 % of control | [4] 96 % of control | [2] 95 % of control | [5] 94 % of control

CC(C)(C)C(=O)O
inactive: [6] 107 % of control | [7] 89 % of control | [8] 94 % of control | [9] 92 % of control | endpoint: mean survival time, dose: 400.0 mg/kg/injection, schedule: Q04DX003 (ip), vehicle: saline 93 % of control

COc1cccc(/C=N/[N+](C)(C)C)c1O
inactive: endpoint: mean survival time, dose: 50.0 mg/kg/injection, schedule: Q01DX001 (ip), vehicle: saline 107 % of control | [10] 101 % of control | [11] 97 % of control

O=C(O)NNC(=O)NO
inactive: endpoint: mean survival time, dose: 100.0 mg/kg/injection, schedule: Q01DX009 (ip), vehicle: saline sonified 97 % of control | endpoint: mean survival time, dose: 200.0 mg/kg/injection, schedule: Q01DX009 (ip), vehicle: saline sonified 103 % of control | endpoint: mean survival time, dose: 400.0 mg/kg/injection, schedule: Q01DX009 (ip), vehicle: saline sonified 101 % of control

COc1nc(C(Cl)(Cl)Cl)c(Cl)c(OC)c1Cl
inactive: endpoint: median survival time, dose: 12.5 mg/kg/injection, schedule: Q01DX009 (ip), vehicle: Klucel (hydroxypropylcellulose) (HPC) 108 % of control | endpoint: median survival time, dose: 25.0 mg/kg/injection, schedule: Q01DX009 (ip), vehicle: Klucel (hydroxypropylcellulose) (HPC) 98 % of control and 103 % of control | endpoint: median survival time, dose: 50.0 mg/kg/injection, schedule: Q01DX005 (ip), vehicle: Klucel (hydroxypropylcellulose) (HPC) 105 % of control and 112 % of control | endpoint: median survival time, dose: 50.0 mg/kg/injection, schedule: Q01DX009 (ip), vehicle: Klucel (hydroxypropylcellulose) (HPC) 106 % of control and 107 % of control | endpoint: median survival time, dose: 67.0 mg/kg/injection, schedule: Q01DX005 (ip), vehicle: Klucel (hydroxypropylcellulose) (HPC) 119 % of control and 102 % of control | endpoint: median survival time, dose: 90.0 mg/kg/injection, schedule: Q01DX005 (ip), vehicle: Klucel (hydroxypropylcellulose) (HPC) 105 % of control | endpoint: median survival time, dose: 120.0 mg/kg/injection, schedule: Q01DX005 (ip), vehicle: Klucel (hydroxypropylcellulose) (HPC) 113 % of control | endpoint: median survival time, dose: 200.0 mg/kg/injection, schedule: Q01DX009 (ip), vehicle: Klucel (hydroxypropylcellulose) (HPC) 115 % of control and 120 % of control

O=S(=O)(Oc1ccccc1)c1ccc(Cl)cc1
inactive: [1] 95 % of control | [4] 98 % of control | [2] 98 % of control | [5] 96 % of control | [3] 98 % of control | [12] 102 % of control

COc1cccc(C(O)c2ccncc2C)c1OC (stereo not drawn)
inactive: endpoint: mean survival time, dose: 25.0 mg/kg/injection, schedule: Q01DX009 (ip), vehicle: Klucel (hydroxypropylcellulose) (HPC) 97 % of control | endpoint: mean survival time, dose: 50.0 mg/kg/injection, schedule: Q01DX009 (ip), vehicle: Klucel (hydroxypropylcellulose) (HPC) 97 % of control | endpoint: mean survival time, dose: 100.0 mg/kg/injection, schedule: Q01DX009 (ip), vehicle: Klucel (hydroxypropylcellulose) (HPC) 95 % of control | endpoint: mean survival time, dose: 200.0 mg/kg/injection, schedule: Q01DX009 (ip), vehicle: Klucel (hydroxypropylcellulose) (HPC) 98 % of control

O=C1c2ccccc2C(=O)N1CCS(=O)(=O)Cl
inactive: endpoint: mean survival time, dose: 50.0 mg/kg/injection, schedule: Q01DX001 (ip), vehicle: saline with Tween-80 100 % of control | [13] 95 % of control and 101 % of control | endpoint: mean survival time, dose: 50.0 mg/kg/injection, schedule: Q04DX002 (ip), vehicle: saline with Tween-80 97 % of control and 108 % of control | endpoint: mean survival time, dose: 50.0 mg/kg/injection, schedule: Q04DX003 (ip), vehicle: saline with Tween-80 98 % of control | endpoint: mean survival time, dose: 100.0 mg/kg/injection, schedule: Q01DX001 (ip), vehicle: saline with Tween-80 97 % of control | [1] 96 % of control and 101 % of control | endpoint: mean survival time, dose: 100.0 mg/kg/injection, schedule: Q04DX002 (ip), vehicle: saline with Tween-80 96 % of control and 100 % of control | [4] 98 % of control | endpoint: mean survival time, dose: 200.0 mg/kg/injection, schedule: Q01DX001 (ip), vehicle: saline with Tween-80 98 % of control | [2] 93 % of control | endpoint: mean survival time, dose: 200.0 mg/kg/injection, schedule: Q04DX002 (ip), vehicle: saline with Tween-80 100 % of control and 101 % of control | [5] 101 % of control

COc1cc2c(cc1OC)C(Cc1ccc3cc(OC)c(OC)cc3c1)=NCC2
inactive: [1] 93 % of control | [4] 87 % of control | [2] 101 % of control | [5] 89 % of control | [3] 110 % of control | [12] 101 % of control

CCCCCCCCOc1nccc(N)n1
inactive: endpoint: mean survival time, dose: 18.75 mg/kg/injection, schedule: Q01DX001 (ip), vehicle: saline with Tween-80 105 % of control | endpoint: mean survival time, dose: 37.5 mg/kg/injection, schedule: Q01DX001 (ip), vehicle: saline with Tween-80 100 % of control | endpoint: mean survival time, dose: 75.0 mg/kg/injection, schedule: Q01DX001 (ip), vehicle: saline with Tween-80 94 % of control

C=Cc1ccc(OC2OC(COC(C)=O)C(OC3OC(COC(C)=O)C(OC(C)=O)C(OC(C)=O)C3OC(C)=O)C(OC(C)=O)C2OC(C)=O)cc1 (stereo not drawn)
inactive: endpoint: mean survival time, dose: 75.0 mg/kg/injection, schedule: Q01DX001 (ip), vehicle: other 92 % of control | endpoint: mean survival time, dose: 150.0 mg/kg/injection, schedule: Q01DX001 (ip), vehicle: other 95 % of control | endpoint: mean survival time, dose: 300.0 mg/kg/injection, schedule: Q01DX001 (ip), vehicle: other 92 % of control

CC(=O)OC(C(=O)N(c1ccccc1)c1ccccc1)c1ccccc1 (stereo not drawn)
inactive: [4] 100 % of control | [5] 94 % of control | [12] 108 % of control

COc1ccc(C2=CCCCc3cc(O)c(OC)cc32)cc1
inactive: [13] 100 % of control | [1] 100 % of control | [2] 100 % of control

COC(=O)C#CC(N)=O
inactive: endpoint: mean survival time, dose: 1.25 mg/kg/injection, schedule: Q01DX009 (ip), vehicle: saline sonified 106 % of control | endpoint: mean survival time, dose: 2.5 mg/kg/injection, schedule: Q01DX009 (ip), vehicle: saline sonified 109 % of control | endpoint: mean survival time, dose: 5.0 mg/kg/injection, schedule: Q01DX009 (ip), vehicle: saline sonified 113 % of control | endpoint: mean survival time, dose: 5.0 mg/kg/injection, schedule: Q04DX003 (ip), vehicle: saline sonified 110 % of control

COc1cc2c(cc1OC)C(Cc1ccccc1NC(=O)c1ccc(C(=O)Nc3ccccc3CC3c4cc(OC)c(OC)cc4CCN3C)cc1)N(C)CC2 (stereo not drawn)
inactive: [10] 97 % of control | [11] 94 % of control | [14] 91 % of control

CC1=C(C)C2(C)C1(C)C1(C)C(C)=C(C)C21C (stereo not drawn)
inactive: [4] 96 % of control | [5] 93 % of control | [12] 89 % of control

CCN(CC)C(=O)C(Cc1ccc(OC)c(OC)c1)C(Cc1ccc(OC)c(OC)c1)C(=O)O (stereo not drawn)
inactive: endpoint: mean survival time, dose: 100.0 mg/kg/injection, schedule: Q01DX009 (ip), vehicle: other 98 % of control | endpoint: mean survival time, dose: 200.0 mg/kg/injection, schedule: Q01DX009 (ip), vehicle: other 98 % of control | endpoint: mean survival time, dose: 400.0 mg/kg/injection, schedule: Q01DX009 (ip), vehicle: other 95 % of control

O=C1CCN2CCc3c([nH]c4ccccc34)C2C1 (stereo not drawn)
inactive: [4] 101 % of control | [5] 101 % of control | [12] 109 % of control

CCCCC(CC)COP(OCC(CC)CCCC)OCC(CC)CCCC (stereo not drawn)
inactive: [1] 92 % of control | [2] 87 % of control

NNC(=O)C1CC2CCC1C2 (stereo not drawn)
inactive: endpoint: mean survival time, dose: 50.0 mg/kg/injection, schedule: Q01DX009 (ip), vehicle: saline 107 % of control | [6] 109 % of control | [7] 97 % of control | [8] 105 % of control | [9] 114 % of control

CCOC(OCC)c1cc(=O)[nH]c(NC(C)=O)n1
inactive: [10] 95 % of control | [11] 103 % of control | [14] 95 % of control

C(=N\N=C(c1ccccc1)c1ccccc1)/c1ccc2c(c1)CCC2
inactive: [4] 87 % of control | [5] 95 % of control | [12] 91 % of control

NCCC(O)C(=O)NC1CC(N)C(OC2OC(CN)C(O)C(O)C2O)C(O)C1OC1OC(CO)C(O)C(N)C1O (stereo not drawn)
inactive: endpoint: mean survival time, dose: 10.0 mg/kg/injection, schedule: Q04DX003 (ip), vehicle: saline 95 % of control | endpoint: mean survival time, dose: 20.0 mg/kg/injection, schedule: Q04DX003 (ip), vehicle: saline 90 % of control | endpoint: mean survival time, dose: 40.0 mg/kg/injection, schedule: Q04DX003 (ip), vehicle: saline 93 % of control

Source: PubChem BioAssay AID256 (DTP/NCI, 2004)
